One test relates to A549 cells. Kind of test: Immunofluorescence microscopy of spindle microtubule organisation. It counts as cell-based, human. The following applies: A549, positive control, compared to untreated cells. Here is the method: Immunofluorescence microscopy was performed as previously described. A549 cells were grown on coverslips coated with gelatin (0.1%). […] After 24 h of the treatment nonspecific antibody binding sites were blocked using FBS following which cells were incubated with antitubulin antibody (1:500) at RT. Coverslips were washed in PBS, incubated in biotinylated antimouse secondary antibody (1:500; RT for 1 h) followed by Streptavidin-FITC (1:200). Finally, cells were mounted with DABCO and images were captured using Zeiss Fluorescence microscope and analyzed using Axio vision software. Colchicine treated cells were used as a positive control.

A further test relates to CEM cells. Kind of test: Intracellular ROS production (H2DCFDA, flow cytometry). It counts as cell-based, Human. The conditions noted are these: 5 to 60 min. As for the experimental part: Intracellular ROS generation in cells was assessed using the oxidation-sensitive fluorescent probe 2,7-dichlorodihydro fluorescein diacetate (H2DCFDA) as previously described. CEM cells were treated with SS28 (5 μM) for 5, 10, 15, 30 and 60 min, harvested, washed and incubated with H2DCFDA (30 min at 37 °C) and then fluorescence intensity was analyzed by flow cytometry. H2O2 was used as the positive control.
On the technique in general: A flow cytometer gives signals particle by particle.

The structures appear in SMILES notation.

In the case of `COc1cc2c(c(OC)c1OC)-c1ccc(OC)c(=O)cc1[C@@H](NC(C)=O)CC2` [Colchicine, reference compound], in the test with A549 cells, the “effect on chromosomes and mitosis (immunofluorescence)” value was “chromosome condensation and metaphase arrest was observed”.

On to `OO` [H2O2, reference compound], for which, in the test with CEM cells, the “intracellular ROS production” value was “distinct ROS production”.

The values above are taken from publication PMC5066224, “A Novel Resveratrol Based Tubulin Inhibitor Induces Mitotic Arrest and Activates Apoptosis in Cancer Cells” (Scientific Reports, 2016).
